Test results reported in patent publication EP0272929B1, “Enkephalinase for therapeutic use” (GENENTECH, INC., priority 1986, dated 1988).
“Also recorded” adds a separate entry of the source.

How the values were obtained:
[1] = molecular target: T1, enkephalinase (Mustela putorius furo, UniProt M3XUG8); test: Enkephalinase activity of tissue membrane fractions: cleavage of (3H-Tyr1,DAla2,Leu5)enkephalin, inhibition by inhibitors and substrates; type: biochemical, ferret
T1 sequence (M3XUG8 2-749): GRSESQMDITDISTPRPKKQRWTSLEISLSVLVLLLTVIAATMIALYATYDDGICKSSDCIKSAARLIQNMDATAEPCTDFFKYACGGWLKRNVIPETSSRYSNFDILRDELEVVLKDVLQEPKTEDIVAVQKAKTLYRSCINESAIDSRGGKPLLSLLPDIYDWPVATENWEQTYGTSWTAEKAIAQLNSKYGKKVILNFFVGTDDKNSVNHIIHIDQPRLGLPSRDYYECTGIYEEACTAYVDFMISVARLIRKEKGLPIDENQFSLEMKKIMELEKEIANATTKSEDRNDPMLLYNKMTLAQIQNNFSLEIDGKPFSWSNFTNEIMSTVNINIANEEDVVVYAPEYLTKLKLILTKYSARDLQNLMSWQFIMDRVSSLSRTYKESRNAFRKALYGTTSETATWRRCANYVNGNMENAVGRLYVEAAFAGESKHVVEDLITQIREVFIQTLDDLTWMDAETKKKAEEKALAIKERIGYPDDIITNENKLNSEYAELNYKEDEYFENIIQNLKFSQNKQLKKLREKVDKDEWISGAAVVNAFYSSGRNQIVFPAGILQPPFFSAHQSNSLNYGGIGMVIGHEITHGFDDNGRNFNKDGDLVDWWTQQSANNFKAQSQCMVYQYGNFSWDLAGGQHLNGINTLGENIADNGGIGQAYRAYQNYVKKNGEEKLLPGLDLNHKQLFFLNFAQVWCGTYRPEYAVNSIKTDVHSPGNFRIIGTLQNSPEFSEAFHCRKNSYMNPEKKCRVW
Method: In this series of experiments, the tissue locations of enkephalinase were determined. Enkephalinase was purified from the ferret kidney to near homogeneity using published methods (Malfroy and Schwartz, Supra). Enkephalinase activity in membrane fractions derived from the vagus nerve, tracheal epithelium, submucosa, muscle, lungs, and kidneys of ferrets was determined. Ferrets were anesthetized, and the vagi, trachea, lungs, and kidneys removed. The tracheal epithelium, submucosa, and muscle were separated from each other by incubating the trachea in Ca⁺⁺-free medium for 15 minutes, after which time, the epithelium was easily removed. The muscle was then separated from the gland-containing submucosa. Each tissue was minced and then homogenized in 50mM HEPES buffer (pH 7.4) using a Polytron homogenizer.
Enkephalinase activity was measured by determining the rates of cleavage of (³H-Tyr¹, DAla², Leu⁵)enkephalin (Research Products International) by membrane fractions or purified enkephalinase. Fifty µl of membrane fraction was incubated for 40 minutes at room temperature with 50 µl of buffer containing (³H-Tyr¹, DAla²,Leu⁵)enkephalin (20nM), after which time the reaction was quenched by adding 50 µl of 2N HCl.
Seventy-five µl of this solution was applied to columns containing polystyrene beads (Poropak-Q); the characteristic metabolite, ³H-Tyr-DAla-Gly, eluted with water, and the radioactivity determined. The protein concentrations were determined by the Bradford procedure (Bradford, M.M. Analytical Biochem. 72:248-254 [1976]), and results of enkephalinase activities were expressed as fmoles substrate cleaved per min per mg protein.

[2] = system: ferret tracheal smooth muscle; test: Isometric tension of isolated tracheal smooth muscle rings (contraction by peptides, effect of inhibitors); type: cell-based
Method: Twenty-seven ferrets were anesthetized with pentobarbital sodium (45-60 mg/kg, i.p.), and the trachea were removed. Transverse rings (8 mm long) were cut from the trachea and mounted in glass chambers filled with 14 ml of Krebs-Henseleit solution of the following composition (in mMoles/L): NaCl 118, KCl 5.9, CaCl₂ 2.5, MgSO₄ 1.2, NaH₂PO4 1.2, NaHCO₃ 25.5, glucose 5.6, 0.1% bovine serum albumin, and penicillin-streptomycin (100 Units/ml). The soluiton was maintained at 37°C and was aerated continuously in a mixture of 95% O₂-5% CO₂, which produced a pH of 7.4. Six tracheal rings were studied concurrently.
(§1) The tracheal rings were connected to strain gauges (Grass FT03) for continuous recording of isometric tension, and the rings were placed between two rectangular platinum electrodes (6 x 40 mm) for electrical field stimulation. The rings were initially stretched to a tension of 20 g for 30 seconds and were then allowed to equilibrate for 1 hour while resting tension was adjusted to 4 g (Skoogh, B-E. et al., J. Appl. Physiol. 53: 253-257 [1982]). During equilibration, the medium was changed every 15 minutes. […] Id.
The responsiveness to substance P (using concentrations ranging from 10⁻⁸ M to 10⁻⁵ M) and to leu-thiorphan and cumulative dose-response curves to substance P (Peninsula Labs) were obtained. Each succeeding concentration of substance P was added after contraction reached a plateau. After completion of the first dose-response curve to substance P, leu-thiorphan (10⁻⁵ M, Squibb Pharmaceutical) was added to the organ bath. Following a 15 minute incubation, a second dose-response curve to substance P was obtained.
The N-terminal fragment, substance P₁₋₉ was studied because enkephalinase cleaves substance P between the 9 and 10 positions (Matsas, R. et al., Proc. Natl. Acad. Sci. [USA] 80: 3111-3115 [1983]), generating that fragment. (10⁻⁵ M Peninsula Labs). Experiments were also carried out with (DPro², DTrp^7,9)-substance P (10⁻⁵ M) (Peninsula Labs), a substance P antagonist (Hakanson, R. et al., Br. J. Pharmac. 77: 697-700 [1982]) by adding the antagonist after the response to substance P (10⁻⁶ M) and leu-thiorphan (10⁻⁵ M) reached a plateau.
Data were expressed as mean ± SE. For the dose-response curves to substance P, the means between two groups at each concentration were compared by a paired t test. For the studies of electrical field stimulation, responses were compared by one way analysis of variance and Newman-Keuls multiple range test. Significance was accepted at P < 0.05. […]

[3] = system: ferret tracheal smooth muscle; test: Electrical field stimulation-induced contraction of isolated tracheal smooth muscle; type: cell-based; settings: 5 Hz; leu-thiorphan 10⁻⁵ M, 15 min
Method: as §1
Increasing concentrations of leu-thiorphan (10⁻¹¹ to 10⁻⁴ M) were added and the stimuli repeated to determine whether leu-thiorphan modulated electrical field stimulation-induced contractions. […] After determining control responses to electrical field stimulation (5 Hz), leu-thiorphan (10⁻⁵ M; 15 min) was added, the stimulus repeated, (DPro²,DTrp^7,9)substance P, the substance P antagonist (10⁻⁵ M; 15 min; Peninisula Labs) was added, and the stimulus was repeated.
Data were expressed as mean ± SE. For the dose-response curves to tachykinins the means between two groups at each concentration were analyzed by an unpaired t test. For the study of electrical field stimulation, responses were compared by one way analysis of variance and Newman-Keuls multiple range test. Significance was accepted at p<0.05.

[4] = system: longitudinal ileal smooth muscle; test: Contraction of longitudinal ileal smooth muscle; type: cell-based, ferrets; settings: inhibitor 10⁻⁵ M
Description: Using methods similar to those with ferret airway smooth muscle, described in Example 7, longitudinal ileal smooth muscle was examined. […] Leu-thiorphan (10⁻⁵ M) shifted the dose response curve to lower concentrations by 1 log unit.

[5] = molecular target: T2, purified rat kidney enkephalinase (Rattus norvegicus, UniProt P07861); type: biochemical; settings: peptide 10⁻⁴M, 50 ng enzyme, 30 minutes at 37°C
T2 construct: purified rat kidney enkephalinase (50 ng in 150 ul 50 mM, pH7.4 HEPES buffer containing 0.02% Triton X-100); from tissue; host or cells: rat kidney
T2 sequence (P07861 1-750): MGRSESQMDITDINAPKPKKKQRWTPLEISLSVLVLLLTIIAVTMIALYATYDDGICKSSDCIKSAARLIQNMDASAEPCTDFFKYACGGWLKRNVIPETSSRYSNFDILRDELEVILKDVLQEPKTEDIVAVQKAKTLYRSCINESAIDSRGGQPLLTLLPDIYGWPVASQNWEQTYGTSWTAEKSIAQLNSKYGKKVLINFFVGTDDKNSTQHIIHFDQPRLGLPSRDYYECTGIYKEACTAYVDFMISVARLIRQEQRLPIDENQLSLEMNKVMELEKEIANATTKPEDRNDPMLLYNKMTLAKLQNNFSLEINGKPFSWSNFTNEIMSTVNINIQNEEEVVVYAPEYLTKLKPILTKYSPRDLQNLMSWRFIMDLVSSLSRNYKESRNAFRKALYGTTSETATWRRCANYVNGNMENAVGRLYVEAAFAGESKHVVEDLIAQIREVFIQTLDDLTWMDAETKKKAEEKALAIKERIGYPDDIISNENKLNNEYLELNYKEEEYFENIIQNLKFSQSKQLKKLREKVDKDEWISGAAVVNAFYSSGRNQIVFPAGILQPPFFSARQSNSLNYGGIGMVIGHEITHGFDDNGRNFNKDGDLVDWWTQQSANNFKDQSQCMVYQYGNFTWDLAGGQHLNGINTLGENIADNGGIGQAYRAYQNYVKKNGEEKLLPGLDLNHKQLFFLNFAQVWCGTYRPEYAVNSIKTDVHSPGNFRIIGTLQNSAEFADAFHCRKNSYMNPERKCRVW

Compound | Ki ([1]; Epthelium membrane fraction) [nM] | Ki ([1]; Kidney) [nM] | Ki ([1]; Lung membrane fraction) [nM] | Ki ([1]; Muscle membrane fraction) [nM] | Ki ([1]; Submucosa membrane fraction) [nM] | Ki ([1]; Vagus/N. membrane fraction) [nM] | effect alone on resting tension ([2]; 10⁻⁵ M) | effect on resting tension ([2]; concentrations up to 10⁻⁴ M) | shift of the dose-response curve to neurokinin A to lower concentrations ([2]; inhibitor 10⁻⁵ M) | shift of the dose-response curve to neurokinin B to lower concentrations ([2]; inhibitor 10⁻⁵ M) | shift of the dose-response curve to substance P to lower concentrations ([2]; inhibitor 10⁻⁵ M) | response to electrical field stimulation, percent of control responses without added drugs [3] [%] | shift of the dose response curve to substance P to lower concentrations [4] [log unit] | fraction of the peptide degraded / hydrolyzed [5] [%]
CC(C)C[C@H](NC(=O)C(CS)Cc1ccccc1)C(=O)O (some centres unmarked) [leu-thiorphan, Leucine-thiorphan] | 8.7 | 3.3 | 2.8 | 2.1 | 2.8 | 2.1 | no significant effect on resting tension | did not alter resting tension in any experiment | two-log units | three-log units | approximately one log unit; also recorded: approximately one-log unit | 118 ± 1.7 | 1 | –
bombesin | – | – | – | – | – | – | – | – | – | – | – | – | – | 80
